Source: PubChem BioAssay AID1745844 (Carcinogenic Potency Database (CPDB), 2022)
Several values for one entry are separate records, joined by “and”; a condition that tells them apart may be missing. Equal values may be shown once. Activity calls are given as the source filed them. How the calls were made is not given here.

Test system: rodent lifetime carcinogenesis bioassay, tumor incidence TD50
Test: chronic cancer bioassays in animals – CPDB, compiled studies (AID 1745844)

SMILES: Cc1c(N(C)CS(=O)(=O)O)c(=O)n(-c2ccccc2)n1C
- TD50 (mouse, strain B6C3F1, females, in drinking water, site: liver, lesion: hepatocellular carcinoma, dosed 75 weeks, study length 86 weeks): 7120 mg/kg/day
- TD50 (mouse, strain B6C3F1, females, in drinking water, site: liver, lesion: several types, types named in the paper, dosed 75 weeks, study length 86 weeks): 742 mg/kg/day
- TD50 (mouse, strain B6C3F1, males, in drinking water, site: liver, lesion: several types, types named in the paper, dosed 77 weeks, study length 86 weeks): 547 mg/kg/day
- TD50 (rat, strain F344/DuCrj, males, in drinking water, site: liver, lesion: neoplastic nodule, dosed 72 weeks, study length 83 weeks): 400 mg/kg/day
- TD50 (rat, strain Wistar, females, in feed, site: liver, lesion: adenoma, dosed 104 weeks, study length 130 weeks): 33100 mg/kg/day (inactive)
- TD50 (rat, strain Wistar, females, in feed, site: liver, lesion: angiosarcoma, dosed 104 weeks, study length 130 weeks): 41400 mg/kg/day (inactive)
- TD50 (rat, strain Wistar, females, in feed, site: liver, lesion: liver-cell carcinoma, dosed 104 weeks, study length 130 weeks): 8330 mg/kg/day (inactive)
- TD50 (rat, strain Wistar, females, in feed, site: mammary gland, lesion: adenoma, dosed 104 weeks, study length 130 weeks): 328 mg/kg/day (inactive)
- TD50 (rat, strain Wistar, males, in feed, site: liver, lesion: adenoma, dosed 104 weeks, study length 130 weeks): 3340 mg/kg/day (inactive)
- carcinogen call (rat, strain Wistar, males, in feed, site: liver, lesion: anaplastic carcinoma, dosed 104 weeks, study length 130 weeks): negative (inactive)

SMILES: Oc1ccc2ccccc2c1N=Nc1ccccc1
- TD50 (mouse, strain B6C3F1, females, in feed, site: all sites, lesion: lymphoma, dosed 103 weeks, study length 105 weeks): 128 mg/kg/day (inactive)
- TD50 (mouse, strain B6C3F1, females, in feed, site: any site (literature study), lesion: several types, types named in the paper, dosed 103 weeks, study length 105 weeks): 391 mg/kg/day
- TD50 (mouse, strain B6C3F1, females, in feed, site: liver, lesion: hepatocellular adenoma + hepatocellular carcinoma + neoplastic nodule, dosed 103 weeks, study length 105 weeks): 833 mg/kg/day
- TD50 (mouse, strain B6C3F1, females, in feed, site: lung, lesion: alveolar/bronchiolar adenoma + alveolar/bronchiolar carcinoma, dosed 103 weeks, study length 105 weeks): 3030 mg/kg/day
- TD50 (mouse, strain B6C3F1, males, in feed, site: any site (literature study), lesion: several types, types named in the paper, dosed 103 weeks, study length 105 weeks): 154 mg/kg/day (inactive)
- TD50 (mouse, strain B6C3F1, males, in feed, site: liver, lesion: hepatocellular adenoma + hepatocellular carcinoma + neoplastic nodule, dosed 103 weeks, study length 105 weeks): 587 mg/kg/day
- TD50 (mouse, strain B6C3F1, males, in feed, site: lung, lesion: alveolar/bronchiolar adenoma + alveolar/bronchiolar carcinoma, dosed 103 weeks, study length 105 weeks): 1080 mg/kg/day
- carcinogen call (mouse, strain CBA, females, in feed, site: liver, lesion: hepatoma, dosed 52 weeks, study length 104 weeks): negative (inactive)
- carcinogen call (mouse, strain CBA, males, in feed, site: liver, lesion: hepatoma, dosed 52 weeks, study length 104 weeks): negative (inactive)
- TD50 (rat, strain Fischer 344, females, in feed, site: liver, lesion: hepatocellular adenoma + hepatocellular carcinoma + neoplastic nodule, dosed 103 weeks, study length 104 weeks): 86.5 mg/kg/day
- TD50 (rat, strain Fischer 344, females, in feed, site: liver, lesion: hepatocellular carcinoma + neoplastic nodule, dosed 103 weeks, study length 104 weeks): 86.5 mg/kg/day
- TD50 (rat, strain Fischer 344, females, in feed, site: liver, lesion: neoplastic nodule, dosed 103 weeks, study length 104 weeks): 96.6 mg/kg/day
- TD50 (rat, strain Fischer 344, females, in feed, site: subcutaneous tissue, lesion: fibroma, dosed 103 weeks, study length 104 weeks): 346 mg/kg/day
- TD50 (rat, strain Fischer 344, males, in feed, site: any site (literature study), lesion: several types, types named in the paper, dosed 103 weeks, study length 104 weeks): 106 mg/kg/day
- TD50 (rat, strain Fischer 344, males, in feed, site: liver, lesion: hepatocellular adenoma + hepatocellular carcinoma + neoplastic nodule, dosed 103 weeks, study length 104 weeks): 17.9 mg/kg/day
- TD50 (rat, strain Fischer 344, males, in feed, site: liver, lesion: hepatocellular carcinoma + neoplastic nodule, dosed 103 weeks, study length 104 weeks): 17.9 mg/kg/day
- TD50 (rat, strain Fischer 344, males, in feed, site: liver, lesion: neoplastic nodule, dosed 103 weeks, study length 104 weeks): 17.7 mg/kg/day

SMILES: C#C[C@]1(O)CC[C@H]2[C@@H]3CCc4cc(OC)ccc4[C@H]3CC[C@@]21C
- TD50 (mouse, strain CFLP, females, in feed, site: liver, lesion: hepatocellular tumor, dosed 78 weeks, study length 78 weeks): 6.27 mg/kg/day (inactive)
- TD50 (mouse, strain CFLP, males, in feed, site: liver, lesion: hepatocellular tumor, dosed 78 weeks, study length 78 weeks): 1.81 mg/kg/day (inactive)

SMILES: O=C1c2cccc(O)c2C(=O)c2c(O)cccc21
- TD50 (mouse, strain C3H/HeN, males, in feed, site: liver, lesion: hepatocellular adenoma, dosed 77 weeks, study length 77 weeks): 201 mg/kg/day
- TD50 (mouse, strain C3H/HeN, males, in feed, site: liver, lesion: hepatocellular carcinoma, dosed 77 weeks, study length 77 weeks): 336 mg/kg/day
- TD50 (mouse, strain C3H/HeN, males, in feed, site: liver, lesion: several types, types named in the paper, dosed 77 weeks, study length 77 weeks): 201 mg/kg/day
- TD50 (rat, strain ACI, males, in feed, site: large intestine, lesion: several types, types named in the paper, dosed 69 weeks, study length 69 weeks): 245 mg/kg/day

SMILES: CC(CN1CC(=O)NC(=O)C1)N1CC(=O)NC(=O)C1 (centres undefined)
- TD50 (mouse, strain B6C3F1, females, i.p., site: all sites, lesion: leukemia + lymphoma, histiocytic type + lymphoma, dosed 52 weeks, study length 86 weeks): 23.7 mg/kg/day
- TD50 (mouse, strain B6C3F1, females, i.p., site: all sites, lesion: leukemia + lymphoma, dosed 52 weeks, study length 86 weeks): 23.7 mg/kg/day and 25.9 mg/kg/day
- TD50 (mouse, strain B6C3F1, females, i.p., site: all sites, lesion: lymphoma, histiocytic type, dosed 52 weeks, study length 86 weeks): 53.7 mg/kg/day
- TD50 (mouse, strain B6C3F1, females, i.p., site: any site (literature study), lesion: several types, types named in the paper, dosed 52 weeks, study length 86 weeks): 16.8 mg/kg/day
- TD50 (mouse, strain B6C3F1, males, i.p., site: any site (literature study), lesion: several types, types named in the paper, dosed 52 weeks, study length 86 weeks): 262 mg/kg/day (inactive)
- TD50 (mouse, strain B6C3F1, males, i.p., site: lung, lesion: alveolar/bronchiolar adenoma + alveolar/bronchiolar carcinoma, dosed 52 weeks, study length 86 weeks): 212 mg/kg/day
- TD50 (rat, strain Sprague-Dawley, females, i.p., site: any site (literature study), lesion: several types, types named in the paper, dosed 52 weeks, study length 81 weeks): 6.48 mg/kg/day
- TD50 (rat, strain Sprague-Dawley, females, i.p., site: uterus, lesion: adenocarcinoma, NOS, dosed 52 weeks, study length 79 weeks): 10.7 mg/kg/day
- TD50 (rat, strain Sprague-Dawley, females, i.p., site: uterus, lesion: adenocarcinoma, NOS, dosed 52 weeks, study length 81 weeks): 11.3 mg/kg/day
- TD50 (rat, strain Sprague-Dawley, males, i.p., site: any site (literature study), lesion: several types, types named in the paper, dosed 52 weeks, study length 81 weeks): 9.55 mg/kg/day (inactive)
- TD50 (rat, strain Sprague-Dawley, males, i.p., site: liver, lesion: hepatocellular adenoma + hepatocellular carcinoma + neoplastic nodule, dosed 52 weeks, study length 81 weeks): 105 mg/kg/day

SMILES: O=C1NCCN1/N=C/c1ccc([N+](=O)[O-])o1
- TD50 (rat, strain Sprague-Dawley, females, in feed, site: all sites, lesion: lymphoblastic lymphoma, dosed 46 weeks, study length 66 weeks): 82 mg/kg/day
- TD50 (rat, strain Sprague-Dawley, females, in feed, site: mammary gland, lesion: adenocarcinoma, dosed 46 weeks, study length 66 weeks): 5.26 mg/kg/day

SMILES: CC1=CC(C)(C)N(N=O)c2ccccc21
- TD50 (rat, strain CB, males, i.p., site: peritoneal cavity, lesion: sarcoma, dosed 26 weeks, study length 100 weeks): 3.31 mg/kg/day

SMILES: O=CNNc1nc(-c2ccco2)cs1
- carcinogen call (rat, strain Sprague-Dawley, females, in feed, site: any site (literature study), lesion: several types, types named in the paper, dosed 46 weeks, study length 64 weeks): negative (inactive)

SMILES: NNCc1ccccc1
- TD50 (mouse, strain Swiss albino, females, in drinking water, site: liver, lesion: angiosarcoma, dosed 121 weeks, study length 121 weeks): 252 mg/kg/day (inactive)
- TD50 (mouse, strain Swiss albino, females, in drinking water, site: liver, lesion: several types, types named in the paper, dosed 121 weeks, study length 121 weeks): 304 mg/kg/day
- TD50 (mouse, strain Swiss albino, females, in drinking water, site: lung, lesion: several types, types named in the paper, dosed 121 weeks, study length 121 weeks): 85.3 mg/kg/day
- TD50 (mouse, strain Swiss albino, males, in drinking water, site: liver, lesion: several types, types named in the paper, dosed 100 weeks, study length 100 weeks): 86.2 mg/kg/day
- TD50 (mouse, strain Swiss albino, males, in drinking water, site: lung, lesion: adenoma, dosed 100 weeks, study length 100 weeks): 711 mg/kg/day (inactive)

SMILES: CCOP(=O)(CC1CO1)OCC (centres undefined)
- TD50 (mouse, strain Ha/ICR, females, i.p., site: lung, lesion: papillary tumor, dosed 64 weeks, study length 64 weeks): 12.4 mg/kg/day

SMILES: CCCCC1(COC(=O)CCC(=O)O)C(=O)N(c2ccccc2)N(c2ccccc2)C1=O
- carcinogen call (rat, strain F344/DuCrj, females, in feed, site: liver, lesion: one or several types, types not named, dosed 104 weeks, study length 104 weeks): negative (inactive)
- TD50 (rat, strain F344/DuCrj, males, in feed, site: adrenal gland, lesion: pheochromocytoma, dosed 104 weeks, study length 104 weeks): 471 mg/kg/day (inactive)
- carcinogen call (rat, strain F344/DuCrj, males, in feed, site: liver, lesion: hepatocellular adenoma, dosed 104 weeks, study length 104 weeks): negative (inactive)
- carcinogen call (rat, strain F344/DuCrj, males, in feed, site: liver, lesion: hepatocellular carcinoma, dosed 104 weeks, study length 104 weeks): negative (inactive)

SMILES: CC(Cl)(Cl)Cl
- TD50 (mouse, strain B6C3F1, females, by gavage, site: lung, lesion: alveolar/bronchiolar adenoma + alveolar/bronchiolar carcinoma, dosed 78 weeks, study length 90 weeks): 260000 mg/kg/day
- carcinogen call (mouse, strain B6C3F1, females, inhaled, site: liver, lesion: hepatocellular adenoma, dosed 104 weeks, study length 104 weeks): negative (inactive)
- carcinogen call (mouse, strain B6C3F1, females, inhaled, site: liver, lesion: hepatocellular carcinoma, dosed 104 weeks, study length 104 weeks): negative (inactive)
- carcinogen call (mouse, strain B6C3F1, females, inhaled, site: liver, lesion: several types, types named in the paper, dosed 104 weeks, study length 104 weeks): negative (inactive)
- TD50 (mouse, strain B6C3F1, males, by gavage, site: any site (literature study), lesion: several types, types named in the paper, dosed 78 weeks, study length 90 weeks): 30500 mg/kg/day
- TD50 (mouse, strain B6C3F1, males, by gavage, site: liver, lesion: hepatocellular adenoma + hepatocellular carcinoma + neoplastic nodule, dosed 78 weeks, study length 90 weeks): 39700 mg/kg/day
- TD50 (mouse, strain B6C3F1, males, by gavage, site: lung, lesion: alveolar/bronchiolar adenoma + alveolar/bronchiolar carcinoma, dosed 78 weeks, study length 90 weeks): 5.08e+06 mg/kg/day
- carcinogen call (mouse, strain B6C3F1, males, inhaled, site: liver, lesion: hepatocellular adenoma, dosed 104 weeks, study length 104 weeks): negative (inactive)
- TD50 (mouse, strain B6C3F1, males, inhaled, site: liver, lesion: hepatocellular carcinoma, dosed 104 weeks, study length 104 weeks): 66300 mg/kg/day (inactive)
- carcinogen call (mouse, strain B6C3F1, males, inhaled, site: liver, lesion: several types, types named in the paper, dosed 104 weeks, study length 104 weeks): negative (inactive)
- carcinogen call (rat, strain Fischer 344, females, inhaled, site: liver, lesion: hepatocellular carcinoma, dosed 104 weeks, study length 104 weeks): negative (inactive)
- carcinogen call (rat, strain Fischer 344, females, inhaled, site: liver, lesion: neoplastic nodule, dosed 104 weeks, study length 104 weeks): negative (inactive)
- TD50 (rat, strain Fischer 344, males, inhaled, site: liver, lesion: hepatocellular carcinoma, dosed 104 weeks, study length 104 weeks): 2070 mg/kg/day (inactive)
- TD50 (rat, strain Fischer 344, males, inhaled, site: liver, lesion: neoplastic nodule, dosed 104 weeks, study length 104 weeks): 5120 mg/kg/day (inactive)
- TD50 (rat, strain Osborne-Mendel, females, by gavage, site: any site (literature study), lesion: several types, types named in the paper, dosed 78 weeks, study length 112 weeks): 226 mg/kg/day
- TD50 (rat, strain Osborne-Mendel, males, by gavage, site: any site (literature study), lesion: several types, types named in the paper, dosed 78 weeks, study length 106 weeks): 950 mg/kg/day
